In BigSolDB 2.1:

COC(=O)c1ccccc1S(N)(=O)=O
solubility (mole fraction)
Details	in isobutanol	in isopentanol	in isopropanol	in methanol	in methyl acetate	in n-butanol	in n-pentanol	in n-propanol
272.15 K	0.000673	0.000712	0.000871	0.00311	–	0.00092	0.000797	0.00106
273.15 K	–	–	–	–	0.0162	–	–	–
278.15 K	–	–	–	–	0.0196	–	–	–
278.75 K	0.001	0.00105	0.00134	0.00462	–	0.00137	0.00118	0.00159
283.15 K	0.00129	0.00135	0.00176	0.00595	0.0235	0.00177	0.0015	0.00206
287.95 K	–	–	–	–	0.0279	–	–	–
288.15 K	0.00171	0.00177	0.00239	0.00788	–	0.00234	0.00197	0.00274
293.05 K	0.00224	0.00229	0.00317	0.0102	–	0.00307	0.00255	0.00357
293.85 K	–	–	–	–	0.0341	–	–	–
298.05 K	0.00291	0.00296	0.00422	0.0133	–	0.004	0.0033	0.00469
298.75 K	–	–	–	–	0.04	–	–	–
303.15 K	0.00378	0.00381	0.00557	0.0171	–	0.00518	0.00424	0.00609
303.45 K	–	–	–	–	0.0465	–	–	–
308.05 K	0.00479	0.00483	0.00726	0.0217	–	0.00659	0.00534	0.00778
308.15 K	–	–	–	–	0.0537	–	–	–
312.15 K	0.00586	0.00586	0.00894	0.0264	–	0.00801	0.0065	0.00946
313.85 K	–	–	–	–	0.0637	–	–	–
318.15 K	0.00775	0.00764	0.0121	0.0348	–	0.0106	0.00849	0.0125
318.65 K	–	–	–	–	0.0731	–	–	–
324.15 K	0.0101	0.00989	0.0161	0.0454	0.0851	0.0139	0.011	0.0164
